Assay results: article PMC8154581, “Discovery of Novel Thiophene-arylamide Derivatives as DprE1 Inhibitors with Potent Antimycobacterial Activities” (Journal of Medicinal Chemistry, 2021)
≈ marks a conversion by molar mass, not a printed value. Where “and” joins values, the source holds several entries; their conditions need not be identical. Equal values may be shown once. Read-outs that look alike come from different tables or passages of the source.

Key:
hERG K+ channel = hERG K+ channel (Homo sapiens, UniProt Q12809); experiment: Inhibition of the hERG K+ channel, electrophysiology
Chain of hERG K+ channel (Q12809 whole entry): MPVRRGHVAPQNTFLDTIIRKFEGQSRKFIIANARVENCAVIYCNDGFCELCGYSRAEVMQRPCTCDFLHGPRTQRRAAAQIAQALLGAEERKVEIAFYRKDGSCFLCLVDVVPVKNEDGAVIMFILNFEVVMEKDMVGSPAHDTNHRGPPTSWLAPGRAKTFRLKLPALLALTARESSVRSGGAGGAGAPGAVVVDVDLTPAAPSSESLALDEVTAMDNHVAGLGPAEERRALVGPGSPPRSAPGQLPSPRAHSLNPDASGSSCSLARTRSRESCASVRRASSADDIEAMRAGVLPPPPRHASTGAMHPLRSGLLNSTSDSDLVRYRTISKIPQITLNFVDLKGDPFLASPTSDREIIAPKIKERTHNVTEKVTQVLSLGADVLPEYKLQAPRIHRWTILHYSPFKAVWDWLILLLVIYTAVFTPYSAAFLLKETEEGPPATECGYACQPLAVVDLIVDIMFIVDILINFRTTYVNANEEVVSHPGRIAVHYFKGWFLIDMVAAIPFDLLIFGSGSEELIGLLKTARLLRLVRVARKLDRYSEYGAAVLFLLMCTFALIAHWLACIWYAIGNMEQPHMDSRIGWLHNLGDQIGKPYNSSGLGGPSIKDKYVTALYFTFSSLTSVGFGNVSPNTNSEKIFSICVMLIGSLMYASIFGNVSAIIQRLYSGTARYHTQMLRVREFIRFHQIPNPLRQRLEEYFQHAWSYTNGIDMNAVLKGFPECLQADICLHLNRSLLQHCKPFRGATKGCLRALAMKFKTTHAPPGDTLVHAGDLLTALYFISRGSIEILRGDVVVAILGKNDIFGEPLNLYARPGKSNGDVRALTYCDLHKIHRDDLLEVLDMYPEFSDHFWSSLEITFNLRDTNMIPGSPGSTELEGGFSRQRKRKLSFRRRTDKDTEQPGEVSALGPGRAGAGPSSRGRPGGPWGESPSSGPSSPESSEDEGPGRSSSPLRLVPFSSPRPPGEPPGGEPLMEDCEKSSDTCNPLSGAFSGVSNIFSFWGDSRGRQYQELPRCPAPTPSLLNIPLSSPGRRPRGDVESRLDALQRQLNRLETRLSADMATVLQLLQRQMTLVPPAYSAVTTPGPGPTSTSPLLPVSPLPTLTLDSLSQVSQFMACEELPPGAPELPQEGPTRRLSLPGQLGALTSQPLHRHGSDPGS

[1] = Hepatocyte stability assay, mouse; conditions: male, mouse hepatocytes
[2] = system: M. tuberculosis (H37Rv) in infected mouse J774A.1 macrophages; assay type: cell-based
Mt-DprE1 = Mt-DprE1 (Mycobacterium tuberculosis, UniProt P9WJF1); assay type: biochemical, M. tuberculosis
Chain of Mt-DprE1 (P9WJF1 whole entry, looked up): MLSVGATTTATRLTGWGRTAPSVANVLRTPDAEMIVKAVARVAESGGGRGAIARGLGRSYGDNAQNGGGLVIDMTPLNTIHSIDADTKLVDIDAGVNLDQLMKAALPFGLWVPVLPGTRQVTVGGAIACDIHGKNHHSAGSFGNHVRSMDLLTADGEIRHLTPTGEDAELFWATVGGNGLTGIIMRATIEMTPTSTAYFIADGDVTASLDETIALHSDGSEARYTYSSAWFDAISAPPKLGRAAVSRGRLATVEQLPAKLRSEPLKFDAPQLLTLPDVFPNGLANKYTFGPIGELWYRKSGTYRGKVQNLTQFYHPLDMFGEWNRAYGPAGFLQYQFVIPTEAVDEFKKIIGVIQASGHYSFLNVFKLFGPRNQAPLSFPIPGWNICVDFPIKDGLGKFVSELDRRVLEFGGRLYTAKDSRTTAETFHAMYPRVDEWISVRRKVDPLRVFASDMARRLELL

[3] = Pharmacokinetic studies in Balb/c mice; conditions: for AUC(0-inf) at 24 h / AUC(0-t) at 24 h / Cmax at 24 h / MRT inf at 24 h / clearance at 24 h / half-life at 24 h / Tmax at 24 h / bioavailability at 24 h: male, Balb/c, mouse, in vivo
Vero cells = experiment: Cytotoxicity assay in Vero cells (MTT); assay type: cell-based; conditions: for IC50: Chlorocebus sabaeus, Vero cells, 48 h, read-out: IC50 (Vero)
[4] = Hepatocyte stability assay, human; conditions: human hepatocytes
M. tuberculosis H37Rv [5] = experiment: MIC against replicating M. tuberculosis H37Rv, microplate Alamar blue assay (MABA); assay type: cell-based
[6] = Cytotoxicity assay in HepG2 cells (MTT); conditions: human
M. tuberculosis H37Rv [7] = experiment: In vivo efficacy in acute TB infection model in Balb/c mice; conditions: for log10 CFU/lung: oral, three weeks, INH 25 mg/kg; for Δlog10 CFU: in vivo
[8] = Mycobacterium tuberculosis, H37RV, against M. tuberculosis H37Rv, Tables 1-3
[9] = Mycobacterium tuberculosis, H37RV, supplementary CSV, same values as Tables 1-3, read-out: Minimal inhibit concentration
[10] = Mycobacterium tuberculosis, H37RV, Table 4, read-out: MIC H37Rv
[11] = Mycobacterium tuberculosis, H37RV, against M. tuberculosis H37Rv, Tables 1-3, read-out: MIC
[12] = first column (batch with 25a; untreated 6.44), 25a 100 mg/kg
[13] = second column (another batch, with TCA1; untreated 7.10), TCA1 100 mg/kg

SMILES: CCOC(=O)NC(=O)c1ccsc1NC(=O)c1ccc(C(=O)N2CCCCC2)c(F)c1 [Compound 24f, Ethyl (2-(3-Fluoro-4-(piperidine-1-carbonyl)benzamido)thiophene-3-carbonyl)carbamate]
- IC50 (hERG K+ channel): > 30 µM
- half-life at 1 µM [1]: 43.7 min
- remaining at 0.5 h, 1 µM [1]: 62.1%
- log10 CFU/macrophages [2]: 4.18 ± 0.04 log10 CFU and 4.41 ± 0.10 log10 CFU
- IC50 DprE1 (Mt-DprE1): 0.2 ± 0.04 µg/mL (≈ 0.447 µM)
- AUC(0-inf) at 24 h ([3]; iv, 5 mg/kg): 184 ng·h/mL
- AUC(0-t) at 24 h ([3]; iv, 5 mg/kg): 183 ng·h/mL
- Cmax at 24 h ([3]; iv, 5 mg/kg): 1300 ng/mL
- MRT inf at 24 h ([3]; iv, 5 mg/kg): 7.8 min
- clearance at 24 h ([3]; iv, 5 mg/kg): 479 mL/min/kg
- half-life at 24 h ([3]; iv, 5 mg/kg): 7.8 min
- AUC(0-inf) at 24 h ([3]; po, 50 mg/kg): 57.9 ng·h/mL
- AUC(0-t) at 24 h ([3]; po, 50 mg/kg): 41.9 ng·h/mL
- Cmax at 24 h ([3]; po, 50 mg/kg): 25.4 ng/mL
- MRT inf at 24 h ([3]; po, 50 mg/kg): 126 min
- Tmax at 24 h ([3]; po, 50 mg/kg): 60 min
- bioavailability at 24 h ([3]; po, 50 mg/kg): 2.3%
- half-life at 24 h ([3]; po, 50 mg/kg): 102 min
- IC50 (Vero cells): > 64 µg/mL
- half-life at 1 µM [4]: 38.1 min
- remaining at 0.5 h, 1 µM [4]: 58%
- melting point: 186 to 187 °C
- MIC H37Rv (M. tuberculosis H37Rv [5]; Table 4): 0.020 µg/mL (≈ 0.0447 µM)
- MIC (M. tuberculosis H37Rv [5]; [8]): < 0.016 µg/mL
- MIC (M. tuberculosis H37Rv [5]; [9]): < 0.016 µg/mL
- MIC (M. tuberculosis H37Rv [5]; [10]): 0.02 to 0.12 µg/mL (≈ 0.0447 to 0.268 µM)
- IC50 at 48 h [6]: > 64 µg/mL

SMILES: CCOC(=O)NC(=O)c1ccsc1NC(=O)c1coc(C(=O)N2CCCCC2)c1 [Compound 24k, Ethyl (2-(5-(Piperidine-1-carbonyl)furan-3-carboxamido)thiophene-3-carbonyl)carbamate]
- SI (Vero cells): >173
- IC50 (Vero cells): > 64 µg/mL
- melting point: 157 to 158 °C
- MIC (M. tuberculosis H37Rv [5]; [11]): 0.37 µg/mL (≈ 0.882 µM)
- MIC (M. tuberculosis H37Rv [5]; [9]): 0.37 µg/mL (≈ 0.882 µM)
- MIC (M. tuberculosis H37Rv [5]; [10]): 0.15 µg/mL (≈ 0.358 µM)

SMILES: COC(=O)NC(=O)c1ccsc1NC(=O)c1ccc(C(=O)N2CCCCC2)cc1 [Compound 25a, Methyl (2-(4-(Piperidine-1-carbonyl)benzamido)thiophene-3-carbonyl)carbamate]
- IC50 (hERG K+ channel): 22.6 µM
- half-life at 1 µM [1]: 27.1 min
- remaining at 0.5 h, 1 µM [1]: 46.5%
- log10 CFU/lung (M. tuberculosis H37Rv [7]; [12]): 4.42 ± 0.45 log10 CFU
- Δlog10 CFU (M. tuberculosis H37Rv [7]): 2.02 log10 CFU
- log10 CFU/macrophages [2]: 4.77 ± 0.10 log10 CFU and 5.06 ± 0.03 log10 CFU
- Δlog10 CFU [2]: 0.75 log10 CFU and 0.46 log10 CFU
- IC50 DprE1 (Mt-DprE1): 0.9 ± 0.2 µg/mL (≈ 2.17 µM)
- AUC(0-inf) at 24 h ([3]; iv, 5 mg/kg): 833 ng·h/mL
- AUC(0-t) at 24 h ([3]; iv, 5 mg/kg): 830 ng·h/mL
- Cmax at 24 h ([3]; iv, 5 mg/kg): 4560 ng/mL
- MRT inf at 24 h ([3]; iv, 5 mg/kg): 12 min
- clearance at 24 h ([3]; iv, 5 mg/kg): 101 mL/min/kg
- half-life at 24 h ([3]; iv, 5 mg/kg): 15.6 min
- AUC(0-inf) at 24 h ([3]; po, 50 mg/kg): 657 ng·h/mL
- AUC(0-t) at 24 h ([3]; po, 50 mg/kg): 651 ng·h/mL
- Cmax at 24 h ([3]; po, 50 mg/kg): 486 ng/mL
- MRT inf at 24 h ([3]; po, 50 mg/kg): 66 min
- Tmax at 24 h ([3]; po, 50 mg/kg): 34.8 min
- bioavailability at 24 h ([3]; po, 50 mg/kg): 7.9%
- half-life at 24 h ([3]; po, 50 mg/kg): 51 min
- IC50 (Vero cells): > 64 µg/mL
- half-life at 1 µM [4]: 20.3 min
- remaining at 0.5 h, 1 µM [4]: 35.9%
- MIC (M. tuberculosis H37Rv [5]; [11]): 0.19 µg/mL (≈ 0.457 µM)
- MIC (M. tuberculosis H37Rv [5]; [9]): 0.19 µg/mL (≈ 0.457 µM)
- IC50 at 48 h [6]: > 64 µg/mL

SMILES: COC(=O)NC(=O)c1ccsc1NC(=O)c1ccc(C(=O)N2CCCCC2)c(F)c1 [Compound 25b, Methyl (2-(3-Fluoro-4-(piperidine-1-carbonyl)benzamido)thiophene-3-carbonyl)carbamate]
- IC50 (hERG K+ channel): > 30 µM
- half-life at 1 µM [1]: 12.5 min
- remaining at 0.5 h, 1 µM [1]: 19%
- log10 CFU/macrophages [2]: 4.59 ± 0.05 log10 CFU and 4.75 ± 0.21 log10 CFU
- Δlog10 CFU [2]: 0.93 log10 CFU and 0.77 log10 CFU
- IC50 DprE1 (Mt-DprE1): 0.4 ± 0.1 µg/mL (≈ 0.923 µM)
- IC50 (Vero cells): > 64 µg/mL
- half-life at 1 µM [4]: 32.6 min
- remaining at 0.5 h, 1 µM [4]: 52.8%
- MIC H37Rv (M. tuberculosis H37Rv [5]; Table 4): 0.030 µg/mL (≈ 0.0692 µM)
- MIC (M. tuberculosis H37Rv [5]; [11]): 0.03 µg/mL (≈ 0.0692 µM)
- MIC (M. tuberculosis H37Rv [5]; [9]): 0.03 µg/mL (≈ 0.0692 µM)
- MIC (M. tuberculosis H37Rv [5]; [10]): 0.02 to 0.12 µg/mL (≈ 0.0461 to 0.277 µM)
- IC50 at 48 h [6]: > 64 µg/mL

SMILES: Cc1ccnc(NC(=O)c2ccsc2NC(=O)c2ccc(C(=O)N3CCCCC3)cc2)n1 [Compound 25j, N-(4-Methylpyrimidin-2-yl)-2-(4-(piperidine-1-carbonyl)benzamido)thiophene-3-carboxamide]
- IC50 (Vero cells): 51.9 µg/mL (≈ 115 µM)
- melting point: 177 to 178 °C
- MIC (M. tuberculosis H37Rv [5]; [8]): 1.94 µg/mL (≈ 4.32 µM)
- MIC (M. tuberculosis H37Rv [5]; [9]): 1.94 µg/mL (≈ 4.32 µM)

SMILES: Cc1ccnc(NC(=O)c2ccsc2NC(=O)c2ccc(C(=O)N3CCCCC3)c(F)c2)n1 [Compound 25k, 2-(3-Fluoro-4-(piperidine-1-carbonyl)benzamido)-N-(4-methylpyrimidin-2-yl)thiophene-3-carboxamide]
- SI (Vero cells): >136
- IC50 (Vero cells): > 64 µg/mL
- melting point: 148 to 150 °C
- MIC (M. tuberculosis H37Rv [5]; [11]): 0.47 µg/mL (≈ 1.01 µM)
- MIC (M. tuberculosis H37Rv [5]; [9]): 0.47 µg/mL (≈ 1.01 µM)

SMILES: O=C(Nc1sccc1C(=O)Nc1nccc(C(F)(F)F)n1)c1ccc(C(=O)N2CCCCC2)cc1 [Compound 25l, 2-(4-(Piperidine-1-carbonyl)benzamido)-N-(4-(trifluoromethyl)pyrimidin-2-yl)thiophene-3-carboxamide]
- log10 CFU/macrophages [2]: 4.54 ± 0.00 log10 CFU and 4.59 ± 0.03 log10 CFU
- Δlog10 CFU [2]: 0.98 log10 CFU and 0.93 log10 CFU
- IC50 DprE1 (Mt-DprE1): 0.4 ± 0.1 µg/mL (≈ 0.794 µM)
- IC50 (Vero cells): > 64 µg/mL
- melting point: 182 to 183 °C
- MIC (M. tuberculosis H37Rv [5]; [11]): 0.2 µg/mL (≈ 0.397 µM)
- MIC (M. tuberculosis H37Rv [5]; [9]): 0.2 µg/mL (≈ 0.397 µM)
- MIC (M. tuberculosis H37Rv [5]; [10]): 0.2 µg/mL (≈ 0.397 µM)
- MIC (M. tuberculosis H37Rv [5]; against M. tuberculosis H37Rv, Tables 1-3): 0.20 µg/mL (≈ 0.397 µM)

SMILES: NNC(=O)c1ccncc1 [INH, isoniazid, reference compound]
- log10 CFU/lung (M. tuberculosis H37Rv [7]; [12]): 1.76 ± 0.49 log10 CFU
- Δlog10 CFU (M. tuberculosis H37Rv [7]): 4.68/5.17 log10 CFU
- log10 CFU/lung (M. tuberculosis H37Rv [7]; [13]): 1.93 ± 0.21 log10 CFU
- MIC (M. tuberculosis H37Rv [5]; [10]): 0.019 µg/mL (≈ 0.139 µM)

SMILES: CCOC(=O)NC(=O)c1ccsc1NC(=O)c1nc2ccccc2s1 [TCA1, reference compound]
- IC50 (hERG K+ channel): 18.3 µM
- half-life at 1 µM [1]: 85.3 min
- remaining at 0.5 h [1]: 74.8%
- Δlog10 CFU (M. tuberculosis H37Rv [7]): 2.86 log10 CFU
- log10 CFU/lung (M. tuberculosis H37Rv [7]; [13]): 4.24 ± 0.25 log10 CFU
- IC50 DprE1 (Mt-DprE1): 0.1 ± 0.01 µg/mL (≈ 0.266 µM)
- enhancement of oral bioavailability relative to 25a ([3]; Balb/c mice): 5 fold
- AUC(0-inf) at 24 h ([3]; iv, 5 mg/kg): 7910 ng·h/mL
- AUC(0-t) at 24 h ([3]; iv, 5 mg/kg): 7910 ng·h/mL
- Cmax at 24 h ([3]; iv, 5 mg/kg): 14300 ng/mL
- MRT inf at 24 h ([3]; iv, 5 mg/kg): 23.4 min
- clearance at 24 h ([3]; iv, 5 mg/kg): 10.6 mL/min/kg
- half-life at 24 h ([3]; iv, 5 mg/kg): 28.2 min
- AUC(0-inf) at 24 h ([3]; po, 50 mg/kg): 33700 ng·h/mL
- AUC(0-t) at 24 h ([3]; po, 50 mg/kg): 33700 ng·h/mL
- Cmax at 24 h ([3]; po, 50 mg/kg): 10600 ng/mL
- MRT inf at 24 h ([3]; po, 50 mg/kg): 172 min
- Tmax at 24 h ([3]; po, 50 mg/kg): 60 min
- bioavailability at 24 h ([3]; po, 50 mg/kg): 42.6%
- half-life at 24 h ([3]; po, 50 mg/kg): 131 min
- IC50 (Vero cells): 31.8 µg/mL (≈ 84.6 µM)
- half-life at 1 µM [4]: 5.97 min
- remaining at 0.5 h, 1 µM [4]: 3.1%
- MIC (M. tuberculosis H37Rv [5]; [11]): 0.48 µg/mL (≈ 1.28 µM)
- MIC (M. tuberculosis H37Rv [5]; [10]): 0.47 µg/mL (≈ 1.25 µM)
- IC50 at 48 h [6]: 46.1 µg/mL (≈ 123 µM)
